Measurements published in paper PMC10301432, “Antiplasmodial, Trypanocidal, and Genotoxicity In Vitro Assessment of New Hybrid α,α-Difluorophenylacetamide-statin Derivatives” (Pharmaceuticals, 2023).
Where two headings read alike, the source gives them in different places.

Legend:
[1] = in vitro; type: cell-based; settings: human
Experimental: Human hepatocellular carcinoma (HepG2) and Chinese Hamster Ovary (CHO-K1) cells obtained from the American Type Culture Collection (Manassas, VA, USA) were cultured in Eagle’s medium (MEM, Gibco®, Waltham, MA, USA) containing 10% fetal bovine serum (FBS) plus 100 µg/mL streptomycin and 100 µg/mL penicillin at 37 °C in a 5% CO2 atmosphere. Logarithmic-phase cells were used in all the experiments.
Fresh HepG2 and CHO-K1 cells were seeded at a density of 1 × 10^4/well. […] Briefly, after treatment, the culture medium was replaced by 90 μL fresh culture medium and 10 μL WST-1 reagent and incubated at 37 °C and 5% CO2 for 3 h. The absorbance was then measured at 440 nm according to the kit protocol.

[2] = system: Salmonella enterica serovar Typhimurium TA100; experiment: Salmonella/microsome assay, TA100
[3] = system: S. typhimurium TA97, TA98, TA100, TA102 and TA104 strains; experiment: Salmonella/microsome assay, overall outcome; settings: all strains, −S9 and +S9; summarized outcome
Experimental: The mutagenicity reverse mutation test was carried out to investigate the potential of 13 (a–d) to induce genetic mutation in S. typhimurium TA97, TA98, TA100, TA102 and TA104 strains. The test was carried out according to the pre-incubation method, both in the absence and presence of a metabolic activation system (4% S9 mix, Aroclor-pre-induced, from Moltox Inc., Boone, NC, USA). DMSO 10% served as the negative control while known mutagens were used as the positive control substances. […] A dose-finding test was carried out with and without the metabolic activation system (S9 mix) for each tester strain.
For the assays without metabolic activation, 0.5 mL of 0.1 mol/L sodium-phosphate buffer (pH 7.4) was added, and for the assays in the presence of metabolic activation, 0.5 mL S9 mix was mixed with 0.1 mL culture medium (2 × 10^8 cells/mL) plus 0.1 mL of each compound solutions. The mixtures were incubated in a shaker at 37 °C (pre-incubation). After 30 min pre-incubation under light protection, the mixture was added to and mixed with 2 mL top agar containing 0.05 mmol/L L-histidine and D-biotin for the S. typhimurium strains. Each of these was then spread on a minimum glucose agar plate. After the top agar solidified, the plates were incubated at 37 °C for 60–72 h. Each tester strain was assayed in triplicate, and the number of revertant colonies was counted for each tester strain and treatment group [58].

[4] = system: Salmonella enterica serovar Typhimurium TA104; experiment: Salmonella/microsome assay, TA104
Experimental: (§1) Salmonella enterica serovar Typhimurium (S. typhimurium) strains TA97, TA98, TA100, TA104 and TA102 from the authors’ stock were used as described in the mutagenicity assay.
(§2) To determine the cytotoxic effects, after 30 min pre-incubation, the assay mixtures were diluted in 0.9% NaCl (w/v) to obtain a suspension containing 2 × 10^2 cells/mL. […] The plates were then incubated at 37 °C for 24 h and the colonies counted. All the experiments were conducted in triplicate and were repeated at least twice. Statistical differences between the groups were analyzed by a two-way ANOVA (p < 0.05) and Tukey’s post hoc test.

[5] = Salmonella/microsome assay, TA104; settings: Salmonella enterica serovar Typhimurium
Experimental: as §1, §2

[6] = system: Salmonella enterica serovar Typhimurium TA97; experiment: Salmonella/microsome assay, TA97
Experimental: as §1, §2

[7] = system: CHO-K1 and HepG2 cell lineages; type: cell-based
Experimental: Fresh HepG2 and CHO-K1 cells were seeded at the density of 1 × 10^5 cells/mL into 24-well plates (1 mL/per well). The compounds 13 (a–d) were then added to the medium to final concentrations of 500, 1000 and 2000 µM and incubation continued for 3 h or 24 h. DMSO 10% was used as the negative control, and, BaP (80 µM) for HepG2 and MMC (5 µM) for CHO-K1 were the positive controls. After exposure to the compounds, the cells were incubated for more than 24 h under growth conditions before quantification of the micronuclei and cytotoxicity. The cytogenetic studies were carried out in triplicate as described previously (see [51]). In order to determine the mitotic index and the number of cells with micronuclei, the medium was replaced by a cold methanol-glacial acetic acid (3:1) fixative for 30 min, and the cells then rinsed with distilled water for 2 min and air dried. The fixed cells were stained with 4,6-diamidino-2-phenylindole (DAPI) ([…]) dissolved in McIlvaine buffer (0.1 M citric acid plus 0.2 M Na2HPO4, pH 7.0) for 60 min, washed with McIlvaine buffer for 5 min, briefly rinsed with distilled water and mounted in glycerol. To determine the mitotic index and the number of cells with micronuclei, 1000 cells per well (3000 cells per concentration) were analyzed under a fluorescence microscope. The results for micronuclei were presented as the percentage of cells containing micronuclei in the 3000 cells/concentration group analyzed. Cells that glowed brightly and had homogenous nuclei were considered as having normal phenotypic morphology. Apoptotic nuclei were identified by the condensed chromatin at the periphery of the nuclear membrane or by fragmented nuclear body morphology. […] Once again, 3000 cells were counted and the percentage of viable cells was evaluated, discounting apoptotic and necrotic cells. Statistical differences between the groups were analyzed by two-way ANOVA (p < 0.01) and Tukey’s post hoc test.

[8] = in vitro; settings: Salmonella enterica serovar Typhimurium, pH 7.4
[9] = system: Salmonella enterica serovar Typhimurium TA98; experiment: Salmonella/microsome assay, TA98
Experimental: as §1, §2

[10] = system: CHO-K1 cells; type: cell-based, Chinese Hamster
Experimental: Fresh HepG2 and CHO-K1 cells were seeded at the density of 1 × 10^5 cells/mL into 24-well plates (1 mL/per well). The compounds 13 (a–d) were then added to the medium to final concentrations of 500, 1000 and 2000 µM and incubation continued for 3 h or 24 h. DMSO 10% was used as the negative control, and, BaP (80 µM) for HepG2 and MMC (5 µM) for CHO-K1 were the positive controls. After exposure to the compounds, the cells were incubated for more than 24 h under growth conditions before quantification of the micronuclei and cytotoxicity. The cytogenetic studies were carried out in triplicate as described previously (see [51]). In order to determine the mitotic index and the number of cells with micronuclei, the medium was replaced by a cold methanol-glacial acetic acid (3:1) fixative for 30 min, and the cells then rinsed with distilled water for 2 min and air dried. The fixed cells were stained with 4,6-diamidino-2-phenylindole (DAPI) ([…]) dissolved in McIlvaine buffer (0.1 M citric acid plus 0.2 M Na2HPO4, pH 7.0) for 60 min, washed with McIlvaine buffer for 5 min, briefly rinsed with distilled water and mounted in glycerol. To determine the mitotic index and the number of cells with micronuclei, 1000 cells per well (3000 cells per concentration) were analyzed under a fluorescence microscope. The results for micronuclei were presented as the percentage of cells containing micronuclei in the 3000 cells/concentration group analyzed. Cells that glowed brightly and had homogenous nuclei were considered as having normal phenotypic morphology. Apoptotic nuclei were identified by the condensed chromatin at the periphery of the nuclear membrane or by fragmented nuclear body morphology. Necrotic cells presented chromatin forms with irregularly shaped aggregates, a pyknotic nucleus (shrunken and darkly stained) and cell membrane disruption, with cellular debris spilled into the extracellular milieu. Once again, 3000 cells were counted and the percentage of viable cells was evaluated, discounting apoptotic and necrotic cells. Statistical differences between the groups were analyzed by two-way ANOVA (p < 0.01) and Tukey’s post hoc test.

[11] = system: P. falciparum parasites (W2 clone) chloroquine-resistant; experiment: Antiplasmodial activity, anti-HRPII assay; type: cell-based, Plasmodium falciparum; settings: for EC50: P. falciparum W2 clone, 24 h at 37 °C, read-out: EC50
Description: P. falciparum W2 clone was maintained in continuous culture as previously described. […] Prior to testing, the ring-stage parasites were synchronized using sorbitol.
The test quantification was read at 450 nm on a spectrophotometer (SpectraMax340PC384, Molecular Devices Sunnyvale, CA, USA), and the drug activity was expressed as the half-maximal inhibitory concentration (EC50) compared to the drug-free controls using the curve-fitting software Origin 8.0 (OriginLab Corporation, Northampton, MA, USA).

## CC(=O)Nc1ccc(C)cc1C(F)(F)C(=O)NCC[C@@H]1C[C@H](CC(=O)OC(C)(C)C)OC(C)(C)O1 [Compound 13b, tert-Butyl 2-((4R,6R)-6-(2-(2-(2-acetamido-5-methylphenyl)-2,2-difluoroacetamido)ethyl)-2,2-dimethyl-1,3-dioxan-4-yl)acetate]
[1]
  CC50 at 24 h: > 1000 µM
[2]; +S9, 3 µM
  revertant His+ colonies TA100: 179 ± 38
[2]; +S9, 15 µM
  revertant His+ colonies TA100: 188 ± 23
[2]; +S9, 30 µM
  revertant His+ colonies TA100: 228 ± 46
[2]; +S9, 150 µM
  revertant His+ colonies TA100: 260 ± 32
[2]; +S9, 300 µM
  revertant His+ colonies TA100: 306 ± 60
[2]; +S9, 1500 µM
  revertant His+ colonies TA100: 333 ± 45
[2]; −S9, 3 µM
  revertant His+ colonies TA100: 145 ± 11
[2]; −S9, 15 µM
  revertant His+ colonies TA100: 146 ± 1
[2]; −S9, 30 µM
  revertant His+ colonies TA100: 145 ± 17
[2]; −S9, 150 µM
  revertant His+ colonies TA100: 143 ± 40
[2]; −S9, 300 µM
  revertant His+ colonies TA100: 144 ± 8
[2]; −S9, 1500 µM
  revertant His+ colonies TA100: 178 ± 10
[3]
  Bacterial Mutagenicity: not mutagenic and no mutagenic potential and No
[4]; +S9, 3 µM
  revertant His+ colonies TA104: 355 ± 12
[4]; +S9, 15 µM
  revertant His+ colonies TA104: 356 ± 14
[4]; +S9, 30 µM
  revertant His+ colonies TA104: 421 ± 67
[4]; +S9, 150 µM
  revertant His+ colonies TA104: 447 ± 45
[4]; +S9, 300 µM
  revertant His+ colonies TA104: 449 ± 18
[4]; +S9, 1500 µM
  revertant His+ colonies TA104: 510 ± 13
[4]; −S9, 3 µM
  revertant His+ colonies TA104: 210 ± 11
[4]; −S9, 15 µM
  revertant His+ colonies TA104: 267 ± 15
[4]; −S9, 150 µM
  revertant His+ colonies TA104: 326 ± 13
[4]; −S9, 300 µM
  revertant His+ colonies TA104: 350 ± 22
[4]; −S9, 1500 µM
  revertant His+ colonies TA104: 400 ± 11
[5]; S. typhimurium TA104 with S9 mix, LC50 (bacterial cytotoxicity) TA104, presence of S9 mix
  CC50 at 30 min: > 1500 µM
[5]; S. typhimurium TA104 without S9 mix, pH 7.4, LC50 (bacterial cytotoxicity) TA104, absence of S9 mix
  CC50 at 30 min: > 1500 µM
[6]; +S9, 3 µM
  revertant His+ colonies TA97: 189 ± 43
[6]; +S9, 15 µM
  revertant His+ colonies TA97: 183 ± 43
[6]; +S9, 30 µM
  revertant His+ colonies TA97: 216 ± 47
[6]; +S9, 150 µM
  revertant His+ colonies TA97: 231 ± 5
[6]; +S9, 300 µM
  revertant His+ colonies TA97: 244 ± 23
[6]; +S9, 1500 µM
  revertant His+ colonies TA97: 288 ± 33
[6]; −S9, 3 µM
  revertant His+ colonies TA97: 69 ± 12
[6]; −S9, 15 µM
  revertant His+ colonies TA97: 76 ± 7
[6]; −S9, 30 µM
  revertant His+ colonies TA97: 75 ± 12
[6]; −S9, 150 µM
  revertant His+ colonies TA97: 74 ± 12
[6]; −S9, 300 µM
  revertant His+ colonies TA97: 84 ± 7
[6]; −S9, 1500 µM
  revertant His+ colonies TA97: 89 ± 27
[7]
  Mammalian Cell Genotoxicity: Yes
[8]
  CC50: > 1500 µM
[9]; +S9, 3 µM
  revertant His+ colonies TA98: 27 ± 5
[9]; +S9, 15 µM
  revertant His+ colonies TA98: 27 ± 1
[9]; +S9, 30 µM
  revertant His+ colonies TA98: 27 ± 5
[9]; +S9, 150 µM
  revertant His+ colonies TA98: 27 ± 5
[9]; +S9, 300 µM
  revertant His+ colonies TA98: 39 ± 1
[9]; +S9, 1500 µM
  revertant His+ colonies TA98: 45 ± 4
[9]; −S9, 3 µM
  revertant His+ colonies TA98: 18 ± 2
[9]; −S9, 15 µM
  revertant His+ colonies TA98: 19 ± 3
[9]; −S9, 30 µM
  revertant His+ colonies TA98: 21 ± 5
[9]; −S9, 150 µM
  revertant His+ colonies TA98: 22 ± 2
[9]; −S9, 300 µM
  revertant His+ colonies TA98: 22 ± 2
[9]; −S9, 1500 µM
  revertant His+ colonies TA98: 26 ± 4
[10]
  mitotic index: did not affect the mitotic index
[11]; LC50 (HepG2)/EC50 (P. falciparum)
  SI: >70
[11]
  EC50: 14.3 ± 0.2 µM
[11]; Plasmodium falciparum, W2, 24 h
  EC50: < 14 µM
[11]; summarized outcome
  Antiplasmodial Activity: Yes
